Measurements: ChEMBL document CHEMBL6177933, “Discovery of Sophoridine α-Aryl Propionamide Derivative ZM600 as a Novel Antihepatic Fibrosis Agent” (J Med Chem, 2024)
Calls of active or inactive are those of the source. The rule behind the calls is not given here.

Columns and labels:
RAW264.7 [1] = assay: Inhibition of LPS-induced NFkappaB transcriptional activity in mouse RAW264.7 cells at 20 uM preincubated for 2 hrs followed by LPS stimulation and measured after 6 hrs by luciferase reporter gene assay relative to control; assay type: cell-based; settings: time 8.0 hrs
RAW264.7 [2] = assay: Inhibition of LPS-induced NFkappaB transcriptional activity in mouse RAW264.7 cells at 5 uM preincubated for 2 hrs followed by LPS stimulation and measured after 6 hrs by luciferase reporter gene assay relative to control; assay type: cell-based; settings: time 8.0 hrs
[3] = Cytotoxicity against human LX-2 cells assessed as reduction in cell viability measured after 48 hrs by CCK-8 assay; assay type: toxicity, cell-based
RAW264.7 [4] = assay: Inhibition of LPS-induced NFkappaB transcriptional activity in mouse RAW264.7 cells at 10 uM preincubated for 2 hrs followed by LPS stimulation and measured after 6 hrs by luciferase reporter gene assay relative to control; assay type: cell-based; settings: time 8.0 hrs
RAW264.7 [5] = assay: Antiinflammatory activity in mouse RAW264.7 cells assessed as inhibition of TGFbeta1-induced alpha-SMA expression at 5 to 20 uM preincubated for 2 hrs […] and measured after 48 hrs by Western blot analysis; assay type: functional, cell-based; settings: dose 5-20 µM, time 50.0 hrs
RAW264.7 [6] = assay: Antiinflammatory activity in mouse RAW264.7 cells assessed as inhibition of TGFbeta1-induced collagen 1 expression at 5 to 20 uM preincubated for 2 hrs […] and measured after 48 hrs by Western blot analysis; assay type: functional, cell-based; settings: dose 5-20 µM, time 50.0 hrs

Row | Structure (SMILES) | fold change (FC) (RAW264.7 [1]) | fold change (FC) (RAW264.7 [2]) | IC50 at 48 h [3] [µM] | fold change (FC) (RAW264.7 [4]) | inhibition (RAW264.7 [5]) | inhibition (RAW264.7 [6])
1 | COC(=O)CCC[C@@H]1[C@H]2CCCN3CCC[C@H](CN1C(=O)Cc1ccc(-c4ccccc4)cc1)[C@@H]23 | 0.85 | 0.99 | 31.7 | 0.94 | – | –
2 | COC(=O)CCC[C@@H]1[C@H]2CCCN3CCC[C@H](CN1C(=O)COC(=O)Cc1ccccc1Nc1c(Cl)cccc1Cl)[C@@H]23 | 0.81 | 0.93 | 14.7 | 0.93 | – | –
3 | COC(=O)CCC[C@@H]1[C@H]2CCCN3CCC[C@H](CN1C(=O)Cc1ccc(-c4ccccc4)c(F)c1)[C@@H]23 | 1.04 | 0.97 | 14.5 | 1.13 | – | –
4 | COC(=O)CCC[C@@H]1[C@H]2CCCN3CCC[C@H](CN1C(=O)C(C)c1ccc(CC(C)C)cc1)[C@@H]23 (some centres not stated) | 1 | 1.03 | 53 | 1.04 | – | –
5 | COC(=O)CCC[C@@H]1[C@H]2CCCN3CCC[C@H](CN1C(=O)[C@H](C)c1ccc4cc(OC)ccc4c1)[C@@H]23 | 0.94 | 1.02 | 63.5 | 0.99 | – | –
6 | COC(=O)CCC[C@@H]1[C@H]2CCCN3CCC[C@H](CN1C(=O)Cc1ccc(-c4cccc(F)c4)cc1)[C@@H]23 | 1.04 | 1.21 | 53.3 | 1.16 | – | –
7 | COC(=O)CCC[C@@H]1[C@H]2CCCN3CCC[C@H](CN1C(=O)Cc1ccc(-n4c(C)ccc4C)cc1)[C@@H]23 | 1.08 | 1.05 | 96 | 0.93 | – | –
8 | COC(=O)CCC[C@@H]1[C@H]2CCCN3CCC[C@H](CN1C(=O)C(C)c1ccc(-c4ccccc4)cc1)[C@@H]23 (some centres not stated) | 1.04 | 1.01 | 21.9 | 1.08 | – | –
9 | O=C1CCC[C@@H]2[C@H]3CCCN4CCC[C@H](CN12)[C@@H]34 [SOPHORIDINE] | 1.05 | 1.03 | > 100 | 0.94 | inactive | inactive
10 | COC(=O)CCC[C@@H]1[C@H]2CCCN3CCC[C@H](CN1C(=O)CC1=C(C)/C(=C/c4ccc([S+](C)[O-])cc4)c4ccc(F)cc41)[C@@H]23 (some centres not stated) | 0.99 | 0.99 | 61.8 | 1 | – | –
